The values that follow come from patent US20040102423A1, “Spironolactone and angiotensin II antagonist combination therapy for treatment of congestive heart failure” (G.D. Searle & Co., priority 1995, published 2004).

One test concerns myocardial fibrosis. Conditions: animal models; cited from earlier work.
In the next test the test system is rabbit aortic rings. Nature of the test: Assay B: In vitro vascular smooth muscle response for AII (antagonist activity, pA2). Format: cell-based. Conditions: Oryctolagus cuniculus, two values in a cell = two determinations. An outline of the steps: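 Endothelium-denuded thoracic aortic rings from male New Zealand white rabbits, in oxygenated Krebs at 37° C. under ~1 g tension, gave isometric AII contraction curves (3×10^−10 to 1×10^−5 M).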

In another test the test system is pressor response to AII. Put plainly: Assay C: In vivo intragastric pressor assay response for AII antagonists. The following applies: in vivo pressor response, 3 mg/kg intragastrically; for inhibition in vivo at 3 mg/kg: Rattus norvegicus, po. More on the design: species or system Sprague-Dawley rats.
Test [1] has as its target angiotensin II AT1 receptor. Put plainly: Assay A: Angiotensin II binding activity, rat uterine membrane preparation, 125I-AII displacement.

Regarding `CC(=O)S[C@@H]1CC2=CC(=O)CC[C@]2(C)[C@H]2CC[C@@]3(C)[C@@H](CC[C@@]34CCC(=O)O4)[C@H]12` [spironolactone, 17-hydroxy-7α-mercapto-3-oxo-17α-pregn-4-ene-21-carboxylic acid γ-lactone acetate], the “prevention of myocardial fibrosis” value in the test with myocardial fibrosis is “prevents myocardial fibrosis”.

The term Kb denotes the equilibrium dissociation constant of an antagonist, usually derived from a functional assay. Higher therefore signals a less potent antagonist. As usually defined, the inhibition in vivo is the share of the control response that was lost under treatment. As a reminder, the IC50 is the concentration needed to halve the response being measured. Read a low IC50 as greater potency. With `CCCCc1nc2cnncc2n1Cc1ccc(-c2ccccc2C(=O)O)cc1` [Compound 119], the Kb in the test with rabbit aortic rings is 0.000617 µM. Moreover, in the test with pressor response to AII, 3 mg/kg produced 20% inhibition in vivo and the “Assay C Duration” value worked out at 60 min. In test [1], the IC50 was determined as 0.016 µM.

`CCCCn1nc(C2OCCCO2)nc1Cc1ccc(-c2ccccc2-c2nnn[nH]2)nc1` [Compound 191]: the Kb in the test with rabbit aortic rings is 0.0178 µM. In addition, in the test with pressor response to AII, the inhibition in vivo at 3 mg/kg was 10% and the “Assay C Duration” value was 180 min. For the same compound, the half-inhibitory concentration (IC50) in test [1] was 0.081 µM.

In the test on rabbit aortic rings, `CCCCc1nc(-c2ccccc2OC)nn1Cc1ccc(-c2ccccc2-c2nnn[nH]2)nc1` [Compound 276] had an antagonist dissociation constant (Kb) of 0.00195 µM. Besides, in the test on pressor response to AII, the inhibition in vivo at 3 mg/kg was < 20%. Further, the IC50 in test [1] worked out at 0.033 µM.

On to `CCCCc1nc(CCCC)n(Cc2ccc(-n3c(Br)ccc3-c3nnn[nH]3)cc2)n1` [Compound 152], for which, in the test with rabbit aortic rings, the Kb is 0.0347 µM. Further, in the test on pressor response to AII, at 3 mg/kg the inhibition in vivo was 10% and the “Assay C Duration” value was found to be 140 min. The compound also showed an IC50 in test [1] of 0.15 µM.

Consider `CCCCc1cn(C2CCCCC2)c(=O)n1Cc1ccc(-c2ccccc2-c2nnn[nH]2)nc1` [Compound 216], for which the Kb in the test with rabbit aortic rings was 0.00158 µM. Also, in the test on pressor response to AII, at 3 mg/kg the inhibition in vivo was 50% and the “Assay C Duration” value is >180 min. In test [1], this compound displayed an IC50 of 0.0054 µM.

Compound `CCCCn1nc(C=O)nc1Cc1ccc(-c2ccccc2-c2nnn[nH]2)nc1` [Compound 190] showed a Kb with rabbit aortic rings of 0.0135 µM. Besides, in the test with pressor response to AII, at 3 mg/kg the inhibition in vivo was 10% and the “Assay C Duration” value worked out at 180 min. Moreover, the IC50 in test [1] came out at 0.01 µM.

In the test on rabbit aortic rings, `CCCCc1cn(-c2ccccc2CC)c(=O)n1Cc1ccc(-c2ccccc2-c2nnn[nH]2)nc1` [Compound 239] gave a Kb of 0.0132 µM. In the test on pressor response to AII, 3 mg/kg produced 20% inhibition in vivo and the “Assay C Duration” value was >180 min. Also, in test [1], the IC50 turned out to be 0.0068 µM.
